# Earlier results in patent US20220008485A1, “Wound Honey” (priority 2020, published 2022).
# Like-named read-outs stand apart in the source and are kept apart here.
# Assays:
# [1] = tested on: Pseudomonas aeruginosa; conditions: for MBC acid: acid alone; for MBC combination Acid/H2O2: acid part: acid combined with H2O2, in Bovine albumin + yeast extract 1%; for MBC combination Acid/H2O2: H2O2 part: in Bovine albumin + yeast extract 1%
# [2] = tested on: Clostridium perfringens
# [3] = tested on: Bacillus cereus
# [4] = tested on: Staphylococcus aureus
# [5] = tested on: Enterococcus hirae
# [6] = tested on: Listeria monocytogenes
# [7] = tested on: spores of B. cereus; conditions: 0.1% TC, HP at 600 MPA, 7° Celsius, infant formula
# [8] = in combination with silver nanoparticles
# [9] = acid combined with H2O2, in Bovine albumin + yeast extract 1%
# [10] = H2O2 combined with Formic acid, in Bovine albumin + yeast extract 1%
compound,measurement,setting,value
"CC(=O)O [Acetic, acetic acid]",MBC acid,[1],0.625%
same,MBC combination Acid/H2O2: acid part,[1],0.625%
"O=CC=Cc1ccccc1 [Cinnamaldehyde, cinnamaldehyde]","Minimal Inhibitory Concentration, Cinnamaldehyde",[2]; alone,0.065 mg/mL
same,"Minimal Inhibitory Concentration, Synergy Cinnamaldehyde",[2]; [8],0.016 mg/mL
same,"Minimal Inhibitory Concentration, Cinnamaldehyde",[3]; alone,0.328 mg/mL
same,"Minimal Inhibitory Concentration, Synergy Cinnamaldehyde",[3]; [8],0.082 mg/mL
"O=CO [Formic, formic acid]",MBC acid,[4]; acid alone,1.25%
same,MBC combination Acid/H2O2: acid part,[4]; [9],0.312%
same,MBC acid,[5]; acid alone,5%
same,MBC combination Acid/H2O2: acid part,[5]; [9],0.625%
same,MBC acid,[1],0.025%
same,MBC combination Acid/H2O2: acid part,[1],0.025%
same,MBC acid,[6]; acid alone,1.56%
same,MBC combination Acid/H2O2: acid part,[6]; [9],0.625%
"CCC(=O)O [Propionic, propionic acid]",MBC acid,[1],0.5%
same,MBC combination Acid/H2O2: acid part,[1],0.50%
"O=C(O)CCC(=O)O [Succinic, succinic acid]",MBC acid,[1],0.078%
same,MBC combination Acid/H2O2: acid part,[1],0.078%
"O=C/C=C/c1ccccc1 [TC, trans-cinnamaldehyde]",Mean logarithmic decrease in spores of B. cereus,[7]; Week 1,1.5
same,Mean logarithmic decrease in spores of B. cereus,[7]; Week 2,2
same,Mean logarithmic decrease in spores of B. cereus,[7]; Week 3,3
same,Mean logarithmic decrease in spores of B. cereus,[7]; Week 4,2.25
same,Mean logarithmic decrease in spores of B. cereus,[7]; Week 5,3
same,Mean logarithmic decrease in spores of B. cereus,[7]; Week 6,1.5
OO [hydrogen peroxide],MBC combination Acid/H2O2: H2O2 part,[4]; [10],1.56%
same,MBC hydrogen peroxide,[4]; hydrogen peroxide alone,3.12%
same,MBC combination Acid/H2O2: H2O2 part,[5]; [10],3.12%
same,MBC hydrogen peroxide,[5]; hydrogen peroxide alone,12.5%
same,MBC combination Acid/H2O2: H2O2 part,[1]; H2O2 combined with Acetic acid,0.39%
same,MBC combination Acid/H2O2: H2O2 part,[1]; H2O2 combined with Formic acid,0.39%
same,MBC combination Acid/H2O2: H2O2 part,[1]; H2O2 combined with Propionic acid,0.19%
same,MBC combination Acid/H2O2: H2O2 part,[1]; H2O2 combined with Succinic acid,0.78%
same,MBC hydrogen peroxide,[1]; hydrogen peroxide alone,1.56%
same,MBC combination Acid/H2O2: H2O2 part,"[6]; H2O2 combined with Formic (printed Fonnic) acid, in Bovine albumin + yeast extract 1%",0.78%
same,MBC hydrogen peroxide,[6]; hydrogen peroxide alone,6.25%
